biological target: Cathepsin S (Homo sapiens, UniProt P25774); test: Cathepsin S inhibition, fluorogenic peptide substrate kinetic assay; format: biochemical; conditions: Table II; Cathepsin S inhibition constant, pH5.5; read-out: Ki Cat. S
How it was run: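 Ki values derive from apparent constants fitted to progress curves, corrected for competition with substrate via [S] and Km. Kinetics were monitored at 380 nm excitation/450 nm emission, after substrate addition (Ac-HPVK-ACC, 50 μM final) to start the reaction.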

Cathepsin S, sequence (P25774 115-331, species assumed): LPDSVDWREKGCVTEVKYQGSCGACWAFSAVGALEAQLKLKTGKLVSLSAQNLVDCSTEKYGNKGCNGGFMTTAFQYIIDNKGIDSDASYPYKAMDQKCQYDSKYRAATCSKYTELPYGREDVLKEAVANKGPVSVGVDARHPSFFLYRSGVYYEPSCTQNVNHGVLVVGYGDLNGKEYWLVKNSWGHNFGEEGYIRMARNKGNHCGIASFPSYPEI

Ki	SMILES
< 100 nM	O=C(N[C@@H](CC1CCCCC1)C(=O)NCCN1CCc2cc(F)ccc21)C1CC(=O)N(Cc2cccs2)C1 (stereo partly drawn) [Compound 73, 5-Oxo-1-thiophen-2-ylmethyl-pyrrolidine-3-carboxylic acid (S)-{2-cyclohexyl-1-[2-(5-fluoro-2,3-dihydro-indol-1-yl)-ethylcarbamoyl]-ethyl}-amide]
< 100 nM	C[C@@H](CNc1ccc(O)cc1)NC(=O)[C@H](CC1CCCCC1)NC(=O)c1ccc(-c2cccc(F)c2)o1 [Compound 125, 5-(3-Fluoro-phenyl)-fuiran-2-carboxylic acid {2-cyclohexyl-1-(S)-[2-(4-hydroxy-phenylamino)-1-(S)-methyl-ethylcarbamoyl]-ethyl}-amide]
< 100 nM	CC(=O)Nc1cccc(NC[C@H](C)NC(=O)[C@H](CC2CCCCC2)NC(=O)c2ccc(-c3cccc(F)c3)o2)c1 [Compound 134, 5-(3-Fluoro-phenyl)-furan-2-carboxylic acid {1-(S)-[2-(3-acetylamino-phenylamino)-1-(S)-methyl-ethylcarbamoyl]-2-cyclohexyl-ethyl}-amide]
< 10000 nM	CS(=O)(=O)N[C@@H](CC1CCCCC1)C(=O)NCCN1CCc2cc(F)ccc21 [Compound 249, (S)-3-Cyclohexyl-N-[2-(5-fluoro-2,3-dihydro-indol-1-yl)-ethyl]-2-methanesulfonylamino-propionamide]
< 1000 nM	COc1ccc(CC(=O)N[C@@H](CC2CCCCC2)C(=O)NCCN2CCc3cc(F)ccc32)cc1 [Compound 6, (S)-3-Cyclohexyl-N-[2-(5-fluoro-2,3-dihydro-indol-1-yl)-ethyl]-2-[2-(4-methoxy-phenyl)-acetylamino]-propionamide]
< 1000 nM	O=C(N[C@@H](CC1CCCCC1)C(=O)NCCN1CCc2cc(F)ccc21)C1CC(=O)N(Cc2ccco2)C1 (stereo partly drawn) [Compound 74, 1-Furan-2-ylmethyl-5-oxo-pyrrolidine-3-carboxylic acid (S)-{2-cyclohexyl-1-[2-(5-fluoro-2,3-dihydro-indol-1-yl)-ethylcarbamoyl]-ethyl}-amide]
< 100 nM	CC(C(=O)N[C@@H](CC1CCCCC1)C(=O)NCCN1CCc2cc(F)ccc21)c1ccc(-c2ccccc2)c(F)c1 (stereo partly drawn) [Compound 59, N-{2-cyclohexyl-1-(S)-[2-(5-fluoro-2,3-dihydro-indol-1-yl)-ethylcarbamoyl]-ethyl}-2-(2-fluoro-biphenyl-4-yl)-propionamide]
< 100 nM	Cc1cccc(S(=O)(=O)N[C@@H](CC(C)(C)C)C(=O)N[C@@H](CC(=O)O)CN2CCc3cc(F)ccc32)c1 [Compound 262, (S,S)-3-[4,4-Dimethyl-2-(toluene-3-sulfonylamino)-pentanoylamino]-4-(5-fluoro-2,3-dihydro-indol-1-yl)-butyric acid]
< 1000 nM	CC(C(=O)N[C@@H](CC1CCCCC1)C(=O)NCCN1CCc2cc(F)ccc21)c1ccc(F)cc1 (stereo partly drawn) [Compound 62, N-{2-cyclohexyl-1-(S)-[2-(5-fluoro-2,3-dihydro-indol-1-yl)-ethylcarbamoyl]-ethyl}-2-(4-fluoro-phenyl)-propionamide]
< 100 nM	O=C(N[C@@H](CC1CCCCC1)C(=O)N[C@@H](COCc1ccccc1)CN1CCc2cc(F)ccc21)OCc1ccccc1 [Compound 169]
< 100 nM	COc1ccc(NCC(C)NC(=O)C(CC2CCCCC2)NC(=O)c2cccc(OC)c2)cc1 [Compound 26, N-{2-Cyclohexyl-(1S)-[2-(4-methoxy-phenylamino)-(1R)-methyl-ethylcarbamoyl]-ethyl}-3-methoxy-benzamide]
< 100 nM	O=C(NCCN1CCc2cc(F)ccc21)[C@H](CC1CCCCC1)NS(=O)(=O)c1ccc(Cl)s1 [Compound 227, (S)-2-(5-Chloro-thiophene-2-sulfonylamino)-3-cyclohexyl-N-[2-(5-fluoro-2,3-dihydro-indol-1-yl)-ethyl]-propionamide]
< 100 nM	C[C@@H](CNc1ccc(OC(F)(F)F)cc1)NC(=O)[C@H](CC1CCCCC1)NC(=O)c1cnn(-c2ccc(F)cc2)c1 [Compound 142, 1-(4-Fluoro-phenyl)-1H-pyrazole-4-carboxylic acid {2-cyclohexyl-1-(S)-[1-(S)-methyl-2-(4-trifluoromethoxy-phenylamino)-ethylcarbamoyl]-ethyl}-amide]
< 10000 nM	C[C@@H](CNc1ccc(OC(F)(F)F)cc1)NC(=O)[C@H](CC1CCCCC1)NC(=O)O[C@@H]1CCNC1 [Compound 187, {2-Cyclohexyl-1-(S)-[1-(S)-methyl-2-(4-trifluoromethoxy-phenylamino)-ethylcarbamoyl]-ethyl}-carbamic acid pyrrolidin-3-(R)-yl ester]
< 1000 nM	C[C@@H](CNc1cccc(Cl)c1F)NC(=O)[C@H](CC1CCCCC1)NC(=O)c1ccc(-c2cccc(F)c2)o1 [Compound 96, 5-(3-Fluoro-phenyl)-furan-2-carboxylic acid {1-(S)-[2-(3-chloro-2-fluoro-phenylamino)-1-(S)-methyl-ethylcarbamoyl]-2-cyclohexyl-ethyl}-amide]
< 100 nM	COc1cccc(C(=O)N[C@@H](CCC2CCCCC2)C(=O)N[C@@H](CCCCN)CN2CCc3cc(F)ccc32)c1 [Compound 167, N-{1-(S)-[5-Amino-1-(S)-(5-fluoro-2,3-dihydro-indol-1-ylmethyl)-pentylcarbamoyl]-3-cyclohexyl-propyl}-3-methoxy-benzamide]
< 1000 nM	O=C(N[C@H](C(=O)N[C@H](CO)CN1CCc2cc(F)ccc21)c1ccc(Cl)cc1Cl)c1ccc(F)c(F)c1 [Compound 214, (S,S)-N-((3-(5-fluoroindolin-1-yl)-1-hydroxypropan-2-ylcarbamoyl)(2,4-dichlorophenyl)methyl)-3,4-difluorobenzamide]
< 1000 nM	O=C(N[C@@H](CC1CCCCC1)C(=O)NCCN1CCc2cc(F)ccc21)C1CCN(c2ccc(Cl)nn2)CC1 [Compound 56, 1-(6-Chloro-pyridazin-3-yl)-piperidine-4-carboxylic acid (S)-{2-cyclohexyl-1-[2-(5-fluoro-2,3-dihydro-indol-1-yl)-ethylcarbamoyl]-ethyl}-amide]
< 1000 nM	O=C(NCCN1CCc2cc(F)ccc21)[C@H](CC1CCCCC1)NS(=O)(=O)c1cccs1 [Compound 235, (S)-3-Cyclohexyl-N-[2-(5-fluoro-2,3-dihydro-indol-1-yl)-ethyl]-2-(thiophene-2-sulfonylamino)-propionamide]
< 100 nM	Cc1cccc(C(=O)N[C@@H](CC(C)C)C(=O)N[C@@H](CCC(=O)OCc2ccccc2)CN2CCc3cc(F)ccc32)c1 [Compound 42, (S,S)-5-(5-Fluoro-2,3-dihydro-indol-1-yl)-4-[4-methyl-2-(3-methyl-benzoylamino)-pentanoylamino]-pentanoic acid benzyl ester]
< 1000 nM	O=C(N[C@@H](Cc1ccc(Cl)cc1)C(=O)NCCN1CCc2cc(F)ccc21)c1ccc(-c2cccc(C(F)(F)F)c2)o1 [Compound 198, N-((S)-1-(2-(5-fluoroindolin-1-yl)ethylcarbamoyl)-2-(4-chlorophenyl)ethyl)-5-(3-(trifluoromethyl)phenyl)furan-2-carboxamide]
< 100 nM	C[C@@H](CNc1cccc(S(C)(=O)=O)c1)NC(=O)[C@H](CC1CCCCC1)NC(=O)c1ccc(-c2cccc(F)c2)o1 [Compound 88, 5-(3-Fluoro-phenyl)-furan-2-carboxylic acid {2-cyclohexyl-1-(S)-[2-(3-methanesulfonyl-phenylamino)-1-(S)-methyl-ethylcarbamoyl]-ethyl}-amide]
< 100 nM	O=C(N[C@@H](CC1CCCCC1)C(=O)NCCN1CCc2cc(F)ccc21)c1ccc(Oc2ccccc2)cc1 [Compound 4, N-(S)-{2-cyclohexyl-1-[2-(5-fluoro-2,3-dihydro-indol-1-yl)-ethylcarbamoyl]-ethyl}-4-phenoxy-benzamide]
< 100 nM	C[C@@H](CNc1ccc(OC(F)(F)F)cc1)NC(=O)[C@H](CC1CCCCC1)NC(=O)c1ccc(-c2ccc(F)cc2)o1 [Compound 103, 5-(4-Fluoro-phenyl)-furan-2-carboxylic acid {2-cyclohexyl-1-(S)-[1-(S)-methyl-2-(4-trifluoromethoxy-phenylamino)-ethylcarbamoyl]-ethyl}-amide]
< 1000 nM	COc1ccc(N[C@H]2CCCC[C@H]2NC(=O)[C@H](CC(C)C)NC(=O)c2cccc(C)c2)cc1 (mixture of isomers) [Compound 33, N-{1-(S)-[cis-2-(4-Methoxy-phenylamino)-cyclohexylcarbamoyl]-3-methyl-butyl}-3-methyl-benzamide]
< 100 nM	C[C@@H](CNc1cccc(Cl)c1)NC(=O)[C@H](CC1CCCCC1)NC(=O)c1ccc(-c2cccc(F)c2)o1 [Compound 94, 5-(3-Fluoro-phenyl)-fuiran-2-carboxylic acid {1-(S)-[2-(3-chloro-phenylamino)-1-(S)-methyl-ethylcarbamoyl]-2-cyclohexyl-ethyl}-amide]
< 1000 nM	O=C(N[C@@H](CC1CCCCC1)C(=O)NCCN1CCc2cc(F)ccc21)C1CC(=O)N(Cc2ccccc2)C1 (stereo partly drawn) [Compound 65, 1-Benzyl-5-oxo-pyrrolidine-3-carboxylic acid (S)-{2-cyclohexyl-1-[2-(5-fluoro-2,3-dihydro-indol-1-yl)-ethylcarbamoyl]-ethyl}-amide]
< 100 nM	COc1cccc(C(=O)N[C@@H](CC2CCCCC2)C(=O)N[C@@H](CO)CN2CCc3cc(F)ccc32)c1 [Compound 150, N-{2-Cyclohexyl-1-(S)-[2-(5-fluoro-2,3-dihydro-indol-1-yl)-1-(R)-hydroxymethyl-ethylcarbamoyl]-ethyl}-3-methoxy-benzamide]
< 1000 nM	C[C@@H](CNc1cc(F)ccc1Cl)NC(=O)[C@H](CC1CCCCC1)NC(=O)c1ccc(-c2cccc(F)c2)o1 [Compound 112, 5-(3-Fluoro-phenyl)-furan-2-carboxylic acid {1-(S)-[2-(2-chloro-5-fluoro-phenylamino)-1-(S)-methyl-ethylcarbamoyl]-2-cyclohexyl-ethyl}-amide]
< 10000 nM	COc1ccc(NCCNC(=O)[C@H]2CCCC[C@H]2NC(=O)c2cccc(C)c2)cc1 (relative stereo) [Compound 1, N-{cis-2-[2-(4-Methoxy-phenylamino)-ethylcarbamoyl]-cyclohexyl}-3-methyl-benzamide]

From US20040248887A1, “Inhibitors of cathepsin S” (IRM LLC, priority 2003, published 2004)
